Assay [1] concerns the target T1, Δ49N-hChoKα (Homo sapiens, UniProt P35790).
T1 construct: cDNA fragment 362-1534, corresponding to aminoacids 50 457; GST (N, cleaved yes); PreScission Protease recognition site (N); made in house; host or cells: Escherichia coli BL21pLysS (DE3)
The experiment in a line: Biochemical kinase inhibition assay (Kinase-Glo luminescent) on Δ49N-hChoKα. As to conditions: ATP 5 μM, choline 5 μM, 60 min rt. On the procedure:
(§1) HumanΔ49ChoKα ([…]Δ49N-hChoKα) cDNA fragment 362-1534, corresponding to aminoacids 50 457 (J. Mol. Biol. 2006, 364, 136-151), and hChoKβ full length (FL), corresponding to aminoacids 2-395 ((PLoS ONE 2009, 4, e7819), were amplified by PCR from human library and cloned, inserting upstream a Prescission Protease recognition site, in pDonor 221 vector, using the Gateway Technology® (Invitrogen). After sequence control, LR reaction was performed in the final expression pGEX 2Tg vector. Both the proteins were expressed in Escherichia coli BL21pLysS (DE3) strain in auto-induction (Kessler) medium in the presence of […] carbenicillin at 25° C. for 16 h. Cells were harvested by centrifugation, the pellet was re-suspended in Lysis buffer (50 mM Tris-HCl pH 7.8, 150 mM NaCl, 10% glycerol, 0.2% CHAPS, 20 mM DTT, Protease Inhibitor Cocktail Tablets from Roche Biochemicals) and lysed by Gaulin homogenizer (Niro Soavi). The lysate was cleared by centrifugation. The supernatant was added to GSH resin and let flow by gravity. The GSH resin was washed with 5 column volume (CV) of cold wash buffer (50 mM Tris-HCl pH 7.8, 150 mM NaCl, 10% glycerol), then with 10 CV of the same buffer containing 2 mM of DTT. Both GST-Δ49N-hChoKα and hChoKβ were subjected to on-column cleavage of the GST tag with Prescission Protease overnight. The eluted cleaved proteins were further purified by ion exchange (ResQ 6 mL chromatography column from GE healthcare) with a gradient from 50 to 500 mM NaCl in 30 CV. The fractions containing […]Δ49N-hChoKα or hChoKβ were pooled, concentrated and gel filtered on a Superdex200 16/60 (GE Healthcare). The final protein concentration was estimated using the Bradford assay. All the samples purified were resolved by SDS-PAGE.
(§2) Biochemical Kinase inhibition Assay on Δ49N-hChoKα and hChoKβFL
(§3) The biochemical activity of compounds against Δ49N-ChoKα and ChoK3 FL were determined using the Kinase-Glo™ Luminescent Kinase Assay (Promega cat. V6711). The assay is based on incubation of the recombinant Δ49N-hChoKα and hChoKβ FL produced in house, 2.2 nM and 30 nM, respectively, with the specific substrates, choline (Sigma-Aldrich-C7017) and ATP, followed by quantification, at the end of reaction time, of the residual not reacted ATP.
(§4) Compounds were 3-fold serially diluted from 10 to 0.0005 μM, then incubated for 60 minutes at room temperature in the presence of ATP 5 μM, choline (5 μM for ChoKα and 20 μM for ChoKβ) and enzyme in a final volume of 19 μL of kinase buffer (50 mM Hepes pH 7.5, 10 mM MgCl2, 1 mM DTT, 3 μM Na3VO4 and 0.2 mg/mL BSA). The final concentration of DMSO was 1%. The assay was run in a robotized format on 384-well plates (Perkin Elmer cat. #6005301).
(§5) At the end of the incubation, an amount of 19 μL of KinaseGlo Reagent was added to each well to stop the reaction and after 30 minutes the luminescence signal was measured using ViewLux reader (Perkin Elmer).
(§6) All information about plate dilution, distribution and raw data of inhibition are tracked via barcode reading and stored in an Oracle DB. The data per each molecule are analyzed by an internally customized version of the SW package “Assay Explorer” which provides sigmoidal fittings of the ten-dilution curves for IC50 determination using a 4 parameter logistic equation: y=bottom+(top−bottom)/(1+10^((log IC50−x)*slope)) where x is the logarithm of the inhibitor concentration, y is the response; y starts at bottom and goes to top with a sigmoid shape.
In general terms: In Kinase-Glo more light means more ATP remaining.

Assay [2] deals with T2, hChoKβ FL (Homo sapiens, UniProt Q9Y259).
T2 construct: hChoKβ full length (FL), corresponding to aminoacids 2-395; GST (N, cleaved yes); PreScission Protease recognition site (N); made in house; host or cells: Escherichia coli BL21pLysS (DE3)
T2 sequence (Q9Y259 2-395): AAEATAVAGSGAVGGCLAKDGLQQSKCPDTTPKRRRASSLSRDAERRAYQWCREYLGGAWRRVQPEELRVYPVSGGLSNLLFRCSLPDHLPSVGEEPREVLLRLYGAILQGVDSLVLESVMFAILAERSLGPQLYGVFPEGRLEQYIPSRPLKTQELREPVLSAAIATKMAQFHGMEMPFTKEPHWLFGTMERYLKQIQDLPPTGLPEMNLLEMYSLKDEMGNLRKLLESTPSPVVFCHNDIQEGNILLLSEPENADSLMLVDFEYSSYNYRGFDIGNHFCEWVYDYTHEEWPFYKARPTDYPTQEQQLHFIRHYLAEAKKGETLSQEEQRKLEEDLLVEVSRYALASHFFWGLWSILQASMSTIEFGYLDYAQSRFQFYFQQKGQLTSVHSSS
Put plainly: Biochemical kinase inhibition assay (Kinase-Glo luminescent) on hChoKβ FL. Particulars: ATP 5 μM, choline 20 μM, 60 min rt. On the procedure:
as §1, §2, §3, §4, §5, §6

[3] abbreviates: recombinant Δ49N-hChoKα 2.2 nM, read-out: ChoKα IC50.
Where [4] appears, read: recombinant hChoKβ FL 30 nM, read-out: ChoKβ IC50.

Read-outs that look alike come from different tables or passages of the source.

37 molecules from patent US11117901B2, “Substituted pyrazolo[4,3-h]quinazolines as choline kinase inhibitors” (NERVIANO MEDICAL SCIENCES S.R.L., priority 2017, dated 2021) can be followed below.

T1 sequence (P35790 50-439 isoform P35790-2): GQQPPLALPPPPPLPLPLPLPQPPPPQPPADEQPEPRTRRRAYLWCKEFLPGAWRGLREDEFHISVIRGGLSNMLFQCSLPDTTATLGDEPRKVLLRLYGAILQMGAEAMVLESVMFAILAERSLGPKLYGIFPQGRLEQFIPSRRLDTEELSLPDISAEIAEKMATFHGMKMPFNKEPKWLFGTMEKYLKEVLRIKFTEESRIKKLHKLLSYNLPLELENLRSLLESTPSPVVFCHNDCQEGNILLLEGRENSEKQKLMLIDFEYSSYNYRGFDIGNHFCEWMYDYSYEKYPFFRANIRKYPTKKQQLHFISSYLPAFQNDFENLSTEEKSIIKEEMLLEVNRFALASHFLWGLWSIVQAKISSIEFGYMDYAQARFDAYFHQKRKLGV

For orientation: IC50 means the midpoint of a concentration-inhibition curve. As to `Cn1nc(C(N)=O)c2c1-c1nc(N)ncc1CC2(C)C` [Ref. cpd 1, reference compound], in assay [1] (setting [3]), the IC50 is greater than 10000 nM.
Same read-out and setting: under `CNC(=O)c1nn(C)c2c1C(C)(C)Cc1cnc(N)nc1-2` [Ref. cpd 2, reference compound] stands greater than 10000 nM.
For `COc1cccc(NC(=O)c2n[nH]c3c2C(C)(C)Cc2cnc(N)nc2-3)c1` [compound 1], the IC50 in assay [1] (setting [3]) turned out to be 257 nM; in assay [2] (setting [4]), 1580 nM.
The like results for `COc1ccc(NC(=O)c2n[nH]c3c2C(C)(C)Cc2cnc(N)nc2-3)cc1` [compound 2] were, in that order, 247 nM and 974 nM.
For `CC1(C)Cc2cnc(N)nc2-c2[nH]nc(C(=O)Nc3ccc(OC(F)(F)F)cc3)c21` [compound 3], the IC50 in assay [1] (setting [3]) is 992 nM; in assay [2] (setting [4]) it was greater than 10000 nM.
The like results for `CC1(C)Cc2cnc(N)nc2-c2[nH]nc(C(=O)Nc3ccc4c(c3)OCO4)c21` [compound 4] were, in that order, 244 nM and 1120 nM.
In the case of `CCOC(=O)c1ccc(NC(=O)c2n[nH]c3c2C(C)(C)Cc2cnc(N)nc2-3)cc1` [compound 5], the IC50 in assay [1] (setting [3]) turned out to be 481 nM; in assay [2] (setting [4]), 2590 nM.
As for `CN1CCN(c2ccc(NC(=O)c3n[nH]c4c3C(C)(C)Cc3cnc(N)nc3-4)cc2)CC1` [compound 6], the half-inhibitory concentration (IC50) in assay [1] (setting [3]) stood at 735 nM; in assay [2] (setting [4]), 317 nM.
The like results for `CN1CCC(NC(=O)c2ccc(NC(=O)c3n[nH]c4c3C(C)(C)Cc3cnc(N)nc3-4)cc2)CC1` [compound 8] were, in that order, 87 nM and 565 nM.
Regarding `CN1CCC(NC(=O)c2ccc(NC(=O)c3nn(CCCO)c4c3C(C)(C)Cc3cnc(N)nc3-4)cc2)CC1` [compound 9], the IC50 worked out at 693 nM in assay [1] (setting [3]) and 5390 nM in assay [2] (setting [4]).
The like results for `CN1CCC(NC(=O)c2cccc(NC(=O)c3n[nH]c4c3C(C)(C)Cc3cnc(N)nc3-4)c2)CC1` [compound 10] were, in that order, 173 nM and 817 nM.
The like results for `CC1(C)Cc2cnc(N)nc2-c2[nH]nc(C(=O)Nc3ccc(C(=O)NC4CCOCC4)cc3)c21` [compound 11] were, in that order, 195 nM and 395 nM.
The like results for `CC1(C)Cc2cnc(N)nc2-c2[nH]nc(C(=O)Nc3ccc(C(=O)N4CCC(N5CCCC5)CC4)cc3)c21` [compound 13] were, in that order, 42 nM and 122 nM.
In the case of `CN(C)C1CCN(C(=O)c2ccc(NC(=O)c3n[nH]c4c3C(C)(C)Cc3cnc(N)nc3-4)cc2)CC1` [compound 14], the IC50 worked out at 198 nM in assay [1] (setting [3]) and 37 nM in assay [2] (setting [4]).
Turning to `CC1(C)Cc2cnc(N)nc2-c2[nH]nc(C(=O)Nc3ccc(C(=O)NC4CCCCC4)cc3)c21` [compound 16], the results for the half-inhibitory concentration (IC50) in assay [1] (setting [3]) and in assay [2] (setting [4]) were 75 nM and 63 nM, respectively.
Taken in the same sequence, the figures for `CCOC(=O)c1cccc(NC(=O)c2n[nH]c3c2C(C)(C)Cc2cnc(N)nc2-3)c1` [compound 17] were 795 nM and 2290 nM.
For the molecule `CC1(C)Cc2cnc(N)nc2-c2[nH]nc(C(=O)Nc3cccc(C(=O)O)c3)c21` [compound 18], the IC50 in assay [1] (setting [3]) stood at 641 nM; in assay [2] (setting [4]), 6350 nM.
In the case of `CC1(C)Cc2cnc(N)nc2-c2[nH]nc(C(=O)Nc3ccc(C(=O)N4CCC(N5CCCCC5)CC4)cc3)c21` [compound 20], the IC50 in assay [1] (setting [3]) turned out to be 24 nM; in assay [2] (setting [4]), 76 nM.
Taken in the same sequence, the figures for `CC1(C)Cc2cnc(N)nc2-c2[nH]nc(C(=O)Nc3cccc(C(=O)NC4CCCCC4)c3)c21` [compound 25] were 253 nM and 625 nM.
As for `CC1(C)Cc2cnc(N)nc2-c2[nH]nc(C(=O)Nc3cccc(C(=O)N4CCC(N5CCCC5)CC4)c3)c21` [compound 26], the IC50 in assay [1] (setting [3]) stood at 266 nM; in assay [2] (setting [4]) it was 435 nM.
In the case of `CNC(=O)c1ccc(NC(=O)c2n[nH]c3c2C(C)(C)Cc2cnc(N)nc2-3)cc1` [compound 27], the figures for the half-maximal inhibitory concentration (IC50) in assay [1] (setting [3]) and in assay [2] (setting [4]) were 267 nM and 444 nM, respectively.
As to `CC1(C)Cc2cnc(N)nc2-c2[nH]nc(C(=O)Nc3ccc(C(=O)N[C@H]4CC[C@H](O)CC4)cc3)c21` [compound 28], the figures for the half-maximal inhibitory concentration (IC50) in assay [1] (setting [3]) and in assay [2] (setting [4]) were 511 nM and 3110 nM, respectively.
As for `CC1(C)Cc2cnc(N)nc2-c2[nH]nc(C(=O)Nc3ccc(C(=O)NC4CCCC4)cc3)c21` [compound 29], the IC50 worked out at 132 nM in assay [1] (setting [3]) and 71 nM in assay [2] (setting [4]).
As to `CC1(C)Cc2cnc(N)nc2-c2[nH]nc(C(=O)Nc3ccc(C(=O)NC4CCC4)cc3)c21` [compound 30], the IC50 in assay [1] (setting [3]) is 110 nM; in assay [2] (setting [4]), 136 nM.
Taken in the same sequence, the figures for `CC1(C)Cc2cnc(N)nc2-c2[nH]nc(C(=O)Nc3ccc(C(=O)NC4CC4)cc3)c21` [compound 31] were 257 nM and 431 nM.
Taken in the same sequence, the figures for `Cc1csc(NC(=O)c2n[nH]c3c2C(C)(C)Cc2cnc(N)nc2-3)n1` [compound 32] were 66 nM and 1090 nM.
Regarding `CCOC(=O)Cc1csc(NC(=O)c2n[nH]c3c2C(C)(C)Cc2cnc(N)nc2-3)n1` [compound 33], the IC50 is 430 nM in assay [1] (setting [3]) and greater than 10000 nM in assay [2] (setting [4]).
With `CC1(C)Cc2cnc(N)nc2-c2[nH]nc(C(=O)NC3CCCCC3)c21` [compound 34], the values for the IC50 in assay [1] (setting [3]) and in assay [2] (setting [4]) were 748 nM and greater than 10000 nM, respectively.
`CC1(C)Cc2cnc(N)nc2-c2[nH]nc(C(=O)Nc3nc(CC(=O)NC4CCCCC4)cs3)c21` [compound 35]: the IC50 was 47 nM in assay [1] (setting [3]) and 439 nM in assay [2] (setting [4]).
Taken in the same sequence, the figures for `CC1(C)Cc2cnc(N)nc2-c2[nH]nc(C(=O)N3CCC(N4CCCC4)CC3)c21` [compound 36] were 480 nM and greater than 10000 nM.
Take `CC1(C)Cc2cnc(N)nc2-c2[nH]nc(C(=O)Nc3nc(CC(=O)N4CCC(N5CCCC5)CC4)cs3)c21` [compound 37]: the results for the IC50 in assay [1] (setting [3]) and in assay [2] (setting [4]) were 3 nM and 69 nM, respectively.
The like results for `CC1(C)Cc2cnc(N)nc2-c2[nH]nc(C(=O)N3CCC(N4CCCCC4)CC3)c21` [compound 38] were, in that order, 682 nM and greater than 10000 nM.
The like results for `CN1CCN(C2CCN(C(=O)c3ccc(NC(=O)c4n[nH]c5c4C(C)(C)Cc4cnc(N)nc4-5)cc3)CC2)CC1` [compound 41] were, in that order, 70 nM and 471 nM.
As to `CC1(C)Cc2cnc(N)nc2-c2[nH]nc(C(=O)Nc3nc(CC(=O)O)cs3)c21` [compound 42], the IC50 in assay [1] (setting [3]) was 54 nM; in assay [2] (setting [4]), greater than 10000 nM.
Taken in the same sequence, the figures for `CC(C)(C)OC(=O)NC1CCN(C(=O)Cc2csc(NC(=O)c3n[nH]c4c3C(C)(C)Cc3cnc(N)nc3-4)n2)CC1` [compound 43] were 7 nM and 1030 nM.
As to `CC1(C)Cc2cnc(N)nc2-c2[nH]nc(C(=O)Nc3nc(CC(=O)N4CCC(N)CC4)cs3)c21` [compound 44], the IC50 in assay [1] (setting [3]) was found to be 25 nM; in assay [2] (setting [4]), 256 nM.
Turning to `CC1(C)Cc2cnc(N)nc2-c2[nH]nc(C(=O)Nc3nc(CC(=O)N4CCC(=O)CC4)cs3)c21` [compound 45], the IC50 is 121 nM in assay [1] (ChoKα IC50, recombinant Δ49N-hChoKα 2.2 nM) and greater than 10000 nM in assay [2] (ChoKβ IC50, recombinant hChoKβ FL 30 nM).
